# Test results taken from US11576911B2, “Composition and method for treatment of depression and psychosis in humans” (Glytech LLC, priority 2012, dated 2023).
# Legend:
# Male C57Bl/6J mice [1] = test: Elevated plus maze (EPM), DOI 2 mg/kg in all conditions; format: in vivo; details: for Mean distance travelled in the open arm of the EPM: Table 6, DOI 2 mg/kg added; for Reversal of 5-HT2A antagonist induced reductions in open arm measures of the EPM, in words: NMDAR antagonists, summary of Example 1; for DTO Mean / PCT Mean: Table 2; for Distance Traveled Open (DTO) Mean / Percent open (PCT) Mean: Table 1; for Effect on distance travelled in open arm / % time in open arm of EPM, in words: agent alone vs control, doses of Tables 1 and 2; for Distance travelled in the open arm relative to the vehicle, in words: Table 6 doses, DOI 2 mg/kg added in all conditions; for Effect on open arm behavior in the EPM, in words: non-competitive NMDAR antagonist with MDL100907 .3 mg/kg (Table 1 lines 8,9); for Total distance travelled in the EPM, in words: with MDL100907 .3 mg/kg (Table 1 lines 8,9)
# Male BalbC/J mice = test: Rodent forced swim test (FST), immobility time; format: in vivo; design: key to Mean immobility time in the rodent forced swim test (FST): seconds of immobility over the 6-min test; details: for immobility time in the rodent forced swim test (FST), Mean: Table 3; for Mean immobility time in the rodent forced swim test (FST): Table 5; for Effect on immobility in the FST, in words: at indicated doses of Table 5
# From the text: Male BalbC/J mice (8 weeks old) from Jackson Laboratories (Bar Harbor, Me.) were used. Upon receipt, mice were assigned unique identification numbers (tail marked) and were group housed in OPTImice cages. All animals were acclimated to the colony room for 1 week prior to testing. During the period of acclimation, animals were examined on a regular basis, handled, and weighed to assure adequate health and suitability. Animals were maintained on a 12/12 light/dark cycle. The room temperature was maintained between 20 and 23° C. with a relative humidity maintained between 30% and 70%. Chow and water were provided ad libitum for the duration of the study. All testing was performed during the animal's light cycle phase.
# Mice were acclimated to the test room at least 1 hour prior to commencing the test. The forced swimming test consisted of one 6-minute session of forced swimming in individual opaque cylinders (15 cm tall×10 cm wide, 1000 ml beakers) containing fresh tap water at a temperature of 23±2° C. and a depth of 12 cm (approximately 800 ml) for each test animal. The time the animal spent immobile was recorded over the 6 min trial. Every 1 min the cumulative immobility time was recorded from the start of the session and noted on the study data record sheet. Immobility was defined as the postural position of floating in the water. The animals were generally observed with the back slightly hunched and the head above water with no movements or with small stabilizing movements of the limbs. After the swim test, each animal was placed in a pre-heated cage with a heating pad and allowed to dry.
# The main variable used to represent immobility in this test was the total time immobile during the 6-min test period. Statistics were performed by analysis of variance (ANOVA) with Dunnett post-hoc testing vs. the control condition or by t-test as appropriate.
# Sertraline, a known antidepressant, is used as a positive control.
# For this study, further NMDAR antagonist compounds were tested for their ability to reduce immobility time in the rodent FST test, indicative of potential anti-depressant effects, and further 5-HT2AR antagonists were tested for their ability to produce reductions of time spent in the open arms of the EPM, indicative to potential liability to induce anxiety, akathisia and suicidality in humans
# Male C57Bl/6J mice [2] = details: selective 5-HT2A antagonist alone; previously demonstrated (U.S. Pat. No. 9,846,453); cited from earlier work
compound,measurement,setting,value
COc1ccc(C(CN(C)C)C2(O)CCCCC2)cc1 (centres unmarked) [Venflaxine],Mean distance travelled in the open arm of the EPM,Male C57Bl/6J mice [1]; 40 mg/kg,224.60
C[C@@H]([C@@H](O)c1ccc(O)cc1)N1CCC(O)(c2ccccc2)CC1 [CP101606],"Reversal of 5-HT2A antagonist induced reductions in open arm measures of the EPM, in words",Male C57Bl/6J mice [1],Pro-therapeutic effects
O=c1ccc2ccc(OCCCCN3CCN(c4cccc5sccc45)CC3)cc2[nH]1 [Brexpiprazole],"immobility time in the rodent forced swim test (FST), Mean",Male BalbC/J mice; .3 mpk alone,239 s
same,"Effect on immobility in the forced swim test, in words",Male BalbC/J mice; agent alone (Table 3),significantly increased immobility
same,DTO Mean,Male C57Bl/6J mice [1]; .3 mg/kg alone,131.6
same,PCT Mean,Male C57Bl/6J mice [1]; .3 mg/kg alone,28.7%
same,Mean distance travelled in the open arm of the EPM,Male C57Bl/6J mice [1]; 0.1 mg/kg,160.10
same,Mean distance travelled in the open arm of the EPM,Male C57Bl/6J mice [1]; 0.3 mg/kg,204.70
same,Mean distance travelled in the open arm of the EPM,Male C57Bl/6J mice [1]; 1 mg/kg,93.70
COc1cccc([C@H](O)C2CCN(CCc3ccc(F)cc3)CC2)c1OC [MDL100907],"Distance travelled in the open arm and % time in the open arm, in words",Male C57Bl/6J mice [2],significantly reduced
same,Distance Traveled Open (DTO) Mean,Male C57Bl/6J mice [1]; .3 mg/kg alone,114.3
same,Percent open (PCT) Mean,Male C57Bl/6J mice [1]; .3 mg/kg alone,19.2%
same,"Effect on distance travelled in open arm / % time in open arm of EPM, in words",Male C57Bl/6J mice [1],significantly reduces both distance travelled in the open arm and % open arm activity
O=C1[C@@H]2[C@H]3CC[C@H](C3)[C@@H]2C(=O)N1C[C@@H]1CCCC[C@H]1CN1CCN(c2nsc3ccccc23)CC1 [Lurasidone],"immobility time in the rodent forced swim test (FST), Mean",Male BalbC/J mice; 1 mpk alone,157 s
same,"immobility time in the rodent forced swim test (FST), Mean",Male BalbC/J mice; 3 mpk alone,169 s
same,"immobility time in the rodent forced swim test (FST), Mean",Male BalbC/J mice; .2 mpk alone,146 s
same,DTO Mean,Male C57Bl/6J mice [1]; .1 mg/kg alone,172.9
same,PCT Mean,Male C57Bl/6J mice [1]; .1 mg/kg alone,32.5%
same,DTO Mean,Male C57Bl/6J mice [1]; .2 mg/kg alone,120.8
same,PCT Mean,Male C57Bl/6J mice [1]; .2 mg/kg alone,22.9%
same,DTO Mean,Male C57Bl/6J mice [1]; .3 mg/kg alone,134.2
same,PCT Mean,Male C57Bl/6J mice [1]; .3 mg/kg alone,26.6%
Cc1ccc(Sc2ccccc2N2CCNCC2)c(C)c1 [Vortioxetine],Mean distance travelled in the open arm of the EPM,Male C57Bl/6J mice [1]; 10 mg/kg,237.90
same,"Distance travelled in the open arm relative to the vehicle, in words",Male C57Bl/6J mice [1],no significant effects
O=C1CCc2ccc(OCCCCN3CCN(c4cccc(Cl)c4Cl)CC3)cc2N1 [Aripiprazole],DTO Mean,Male C57Bl/6J mice [1]; 1 mg/kg alone,113.9
same,PCT Mean,Male C57Bl/6J mice [1]; 1 mg/kg alone,34.9%
same,"Effect on distance travelled in open arm / % time in open arm of EPM, in words",Male C57Bl/6J mice [1],"significantly decreased distance travelled in the open arm, but not % of time in the open arm"
"O=C(O)[C@H]1CN(C/C=C/P(=O)(O)O)CCN1 [D-CPPene, D-(E)-4-(3-phosphonoprop-2-enyl)piperazine-2-carboxylic acid]",Mean immobility time in the rodent forced swim test (FST),Male BalbC/J mice; 0.03 mg/kg,124.20
same,Mean immobility time in the rodent forced swim test (FST),Male BalbC/J mice; 0.1 mg/kg,153.40
same,Mean immobility time in the rodent forced swim test (FST),Male BalbC/J mice; 0.3 mg/kg,129.10
same,Mean immobility time in the rodent forced swim test (FST),Male BalbC/J mice; 1.0 mg/kg,156.80
same,Mean immobility time in the rodent forced swim test (FST),Male BalbC/J mice; 3.0 mg/kg,124.60
same,Mean immobility time in the rodent forced swim test (FST),Male BalbC/J mice; 10 mg/kg,141.20
same,"Reversal of 5-HT2A antagonist induced reductions in open arm measures of the EPM, in words",Male C57Bl/6J mice [1],Pro-therapeutic effects
O=C(c1ccc(F)cc1)C1CCN(CCn2c(=O)[nH]c3ccccc3c2=O)CC1 [ketanserin],"Distance travelled in the open arm and % time in the open arm, in words",Male C57Bl/6J mice [2],significantly reduced
CN[C@H]1CC[C@@H](c2ccc(Cl)c(Cl)c2)c2ccccc21 [Sertraline],Mean immobility time in the rodent forced swim test (FST),Male BalbC/J mice; 20 mg/kg,85.50
CNCCC(Oc1ccc(C(F)(F)F)cc1)c1ccccc1 (centres unmarked) [Fluoxetine],Mean distance travelled in the open arm of the EPM,Male C57Bl/6J mice [1]; 10 mg/kg,216.70
same,"Distance travelled in the open arm relative to the vehicle, in words",Male C57Bl/6J mice [1],no significant effects
CN(C)C(=O)N[C@H]1CC[C@H](CCN2CCN(c3cccc(Cl)c3Cl)CC2)CC1 [Cariprazine],Mean distance travelled in the open arm of the EPM,Male C57Bl/6J mice [1]; 0.03 mg/kg,186.00
same,Mean distance travelled in the open arm of the EPM,Male C57Bl/6J mice [1]; 0.1 mg/kg,174.30
same,Mean distance travelled in the open arm of the EPM,Male C57Bl/6J mice [1]; 1 mg/kg,69.70
"CNC1(c2ccccc2Cl)CCCCC1=O (racemic) [ketamine, (R,S)-2-(2-Chlorphenyl)-2-(methylamino)cyclohexan-1-on]",Distance Traveled Open (DTO) Mean,Male C57Bl/6J mice [1]; 10 mg/kg ip alone,194.5
same,Percent open (PCT) Mean,Male C57Bl/6J mice [1]; 10 mg/kg ip alone,40.3%
same,"Effect on distance travelled in open arm / % time in open arm of EPM, in words",Male C57Bl/6J mice [1],does not significantly alter either distance traveled in the open arm or % time in the open arm
same,"Effect on open arm behavior in the EPM, in words",Male C57Bl/6J mice [1],did not significantly affect open arm behavior
same,"Total distance travelled in the EPM, in words",Male C57Bl/6J mice [1],reduced total distance travelled
"O=C(O)[C@H]1C[C@@H](CP(=O)(O)O)CCN1 (relative stereo) [CGS-19755, cis-4-(phosphonomethyl)-2-piperidinecarboxylic acid]",Mean immobility time in the rodent forced swim test (FST),Male BalbC/J mice; 0.03 mg/kg,125.60
same,Mean immobility time in the rodent forced swim test (FST),Male BalbC/J mice; 0.1 mg/kg,144.30
same,Mean immobility time in the rodent forced swim test (FST),Male BalbC/J mice; 0.3 mg/kg,120.00
same,Mean immobility time in the rodent forced swim test (FST),Male BalbC/J mice; 1.0 mg/kg,137.20
same,Mean immobility time in the rodent forced swim test (FST),Male BalbC/J mice; 3.0 mg/kg,154.90
same,Mean immobility time in the rodent forced swim test (FST),Male BalbC/J mice; 10 mg/kg,114.70
same,"Effect on immobility in the FST, in words",Male BalbC/J mice,numerically reduce immobility
same,"Reversal of 5-HT2A antagonist induced reductions in open arm measures of the EPM, in words",Male C57Bl/6J mice [1],Pro-therapeutic effects
c1ccc(C2(N3CCCCC3)CCCCC2)cc1 [PCP],"Reversal of 5-HT2A antagonist induced reductions in open arm measures of the EPM, in words",Male C57Bl/6J mice [1],worsened performance relative to DCS
same,"Effect on open arm behavior in the EPM, in words",Male C57Bl/6J mice [1],did not significantly affect open arm behavior
same,"Total distance travelled in the EPM, in words",Male C57Bl/6J mice [1],reduced total distance travelled
CCN(CC)C(=O)[C@@]1(c2ccccc2)C[C@H]1CN [Levomilnacipran],Mean distance travelled in the open arm of the EPM,Male C57Bl/6J mice [1]; 40 mg/kg,237.90
same,"Distance travelled in the open arm relative to the vehicle, in words",Male C57Bl/6J mice [1],no significant effects
CN(C)CCO/N=C(/C=C/c1ccc(O)cc1)c1ccccc1F [SR46349B],Mean distance travelled in the open arm of the EPM,Male C57Bl/6J mice [1]; 0.3 mg/kg,127.10
same,Mean distance travelled in the open arm of the EPM,Male C57Bl/6J mice [1]; 1 mg/kg,98.00
same,Mean distance travelled in the open arm of the EPM,Male C57Bl/6J mice [1]; 10 mg/kg,105.90
CN(C)CCCN1c2ccccc2CCc2ccccc21 [Imipramine],Mean distance travelled in the open arm of the EPM,Male C57Bl/6J mice [1]; 10 mg/kg,235.00
same,"Distance travelled in the open arm relative to the vehicle, in words",Male C57Bl/6J mice [1],no significant effects
CC(C)COc1ccc(CNC(=O)N(Cc2ccc(F)cc2)C2CCN(C)CC2)cc1 [Pimavanserin],Mean distance travelled in the open arm of the EPM,Male C57Bl/6J mice [1]; 0.3 mg/kg,150.20
same,Mean distance travelled in the open arm of the EPM,Male C57Bl/6J mice [1]; 1 mg/kg,204.10
same,Mean distance travelled in the open arm of the EPM,Male C57Bl/6J mice [1]; 10 mg/kg,66.50
same,"Distance travelled in the open arm relative to the vehicle, in words",Male C57Bl/6J mice [1],significantly reduced
Cc1nc2n(c(=O)c1CCN1CCC(c3noc4cc(F)ccc34)CC1)CCCC2 [Risperidone],DTO Mean,Male C57Bl/6J mice [1]; 1 mg/kg alone,0.0
same,PCT Mean,Male C57Bl/6J mice [1]; 1 mg/kg alone,0.0%
same,Mean distance travelled in the open arm of the EPM,Male C57Bl/6J mice [1]; 1 mg/kg,5.30
OCCOCCN1CCN(C2=Nc3ccccc3Sc3ccccc32)CC1 [Quetiapine],DTO Mean,Male C57Bl/6J mice [1]; 30 mg/kg alone,42.8
same,PCT Mean,Male C57Bl/6J mice [1]; 30 mg/kg alone,9.0%
O=C(/C=C/c1c(C(=O)O)[nH]c2cc(Cl)cc(Cl)c12)Nc1ccccc1 [Gavestinel],Mean immobility time in the rodent forced swim test (FST),Male BalbC/J mice; 0.1 mg/kg,136.10
same,Mean immobility time in the rodent forced swim test (FST),Male BalbC/J mice; 0.3 mg/kg,116.30
same,Mean immobility time in the rodent forced swim test (FST),Male BalbC/J mice; 1.0 mg/kg,109.60
same,Mean immobility time in the rodent forced swim test (FST),Male BalbC/J mice; 3.0 mg/kg,122.70
same,Mean immobility time in the rodent forced swim test (FST),Male BalbC/J mice; 10 mg/kg,111.40
same,Mean immobility time in the rodent forced swim test (FST),Male BalbC/J mice; 30 mg/kg,131.90
same,"Effect on immobility in the FST, in words",Male BalbC/J mice,numerically reduce immobility
N#Cc1c[nH]c2c(C(=O)N3CCN(CCc4ccc(F)cc4)CC3)cccc12 [EMD281014],Mean distance travelled in the open arm of the EPM,Male C57Bl/6J mice [1]; 1 mg/kg,111.00
same,Mean distance travelled in the open arm of the EPM,Male C57Bl/6J mice [1]; 3 mg/kg,42.70
same,Mean distance travelled in the open arm of the EPM,Male C57Bl/6J mice [1]; 10 mg/kg,44.80
